Results: the OligoGym collection
Bases are written 5' to 3'; sugars and linkages follow in the same order, as letters with counts (s phosphorothioate, o phosphodiester; PS: all linkages phosphorothioate). C may stand for cytosine or 5-methylcytosine; the collection does not tell. l = locked nucleic acid (LNA); d = 2'-deoxy (DNA)

target: HIF1A; test: HeLa, 100 nM transfected, 24 h, mean of 3; conditions: ASO

Sequence | caspase activation (% of PBS control)
TGGCAAGCATCCTGTA (sugars l2 d1 l2 d7 l4, PS) | 394
GTTACTGCCTTCTTAC (sugars l5 d6 l5, PS) | 624
GTTACTGCCTTCTTAC (sugars l1 d11 l4, PS) | 125
TGGCAAGCATCCTGTA (sugars ldddlddddddldlll, PS) | 230
TGGCAAGCATCCTGTA (sugars lldlldddddddlddl, PS) | 459
GTTACTGCCTTCTTAC (sugars llddldddddddldll, PS) | 218
GTTACTGCCTTCTTAC (sugars l1 d1 l1 d11 l2, PS) | 97.8
TGGCAAGCATCCT (sugars l2 d1 l1 d6 l3, PS) | 259
TGGCAAGCATCCTGTA (sugars l1 d10 l1 d3 l1, PS) | 199
GTTACTGCCTTCTTAC (sugars ldddlddddddldlll, PS) | 162
GCAAGCATCCTGT (sugars l1 d1 l2 d7 l2, PS) | 220
TGGCAAGCATCCTGTA (sugars llldlddddddlddll, PS) | 348
GTTACTGCCTTCTTAC (sugars l1 d10 l1 d1 l3, PS) | 125
